Among the data in ChEMBL document CHEMBL1131563, “Effects of alpha- and beta-galactosylated C2-ceramides on the immune system” (J Med Chem, 1998) are Concentration values, retold here.

SMILES strings stand for the structures.

Assay [1] is filed under the species Mus musculus. In words: Concentration at which compound induced concentration-dependent stimulation of the MLR responses in murine spleen cells; range = 80 ng/mL to 2 ug/mL. Format: functional, cell-based.
The species named for assay [2] is Mus musculus. In words: Concentration at which compound suppressed the MLR response (mixed leukocyte reaction) in murine spleen cells; range = 80 ng/mL to 2 ug/mL. In kind it is functional, cell-based.

The molecule `CCCCCCCCCCCCC/C=C/[C@@H](O)[C@H](CO[C@@H]1O[C@@H](CO)[C@H](O)[C@H](O)[C@@H]1O)NC(C)=O` showed a Concentration in the assay listed under Mus musculus [1] of 2 µg/mL. In the assay listed under Mus musculus [2], `CCCCCCCCCCCCC/C=C/[C@@H](O)[C@H](CO)NC(C)=O` returned a Concentration of 2 µg/mL.
